# Biological target: T1, GR (Mus musculus, UniProt P06537)
# T1 construct: from tissue; host or cells: tissues of C57BL6/J mice (intact or adrenalectomized), in vivo
# T1 sequence (P06537 1-792): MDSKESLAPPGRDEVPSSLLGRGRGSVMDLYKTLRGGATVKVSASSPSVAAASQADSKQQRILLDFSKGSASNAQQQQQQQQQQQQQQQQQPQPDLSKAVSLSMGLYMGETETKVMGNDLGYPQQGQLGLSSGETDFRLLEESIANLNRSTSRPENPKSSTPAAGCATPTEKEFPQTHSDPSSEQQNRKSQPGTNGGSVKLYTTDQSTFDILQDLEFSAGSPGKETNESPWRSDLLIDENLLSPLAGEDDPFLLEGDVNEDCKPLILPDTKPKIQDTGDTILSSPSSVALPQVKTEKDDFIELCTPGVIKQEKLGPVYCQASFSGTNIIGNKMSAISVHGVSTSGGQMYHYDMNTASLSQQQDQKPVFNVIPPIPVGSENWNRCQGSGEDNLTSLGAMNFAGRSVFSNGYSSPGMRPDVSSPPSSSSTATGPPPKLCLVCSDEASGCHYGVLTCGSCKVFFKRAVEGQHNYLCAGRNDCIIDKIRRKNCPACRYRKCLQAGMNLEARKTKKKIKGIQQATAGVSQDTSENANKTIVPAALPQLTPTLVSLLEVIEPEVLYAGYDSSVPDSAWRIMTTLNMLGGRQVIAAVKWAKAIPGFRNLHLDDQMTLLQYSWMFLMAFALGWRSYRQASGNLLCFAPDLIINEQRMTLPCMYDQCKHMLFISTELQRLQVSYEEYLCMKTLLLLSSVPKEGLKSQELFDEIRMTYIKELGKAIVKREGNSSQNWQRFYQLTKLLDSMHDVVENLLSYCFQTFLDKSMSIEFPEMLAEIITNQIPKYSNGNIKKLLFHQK
# Test: [18F]-YJH08 biodistribution, dexamethasone treatment study
# Format: in vivo
# Details: 20 min after injection
# Protocol: All animal experiments were conducted under the approval from Institutional Animal Care and Use Committee (IACUC) at UCSF. Male nu nu or C57BL6/J mice (4-6 weeks) purchased from Charles River. All the mice were well-housed in the USCF with free access to food and water. […] The mice were treated once daily for three days. At day 3, the mice received the radiotracer after the final gavage. Adrenalectomized mice were purchased from Charles River, and provided drinking water supplemented with NaCl (aq) per instructions.
# For a broader survey of radiotracer biodistribution post mortem, mice were euthanized after radiotracer injection with CO2(g) asphyxiation and dissected at dedicated time points post injection. The blood and tissues were removed, washed, dried and weighed. The activity of each tissue was measured with a gamma counter. All data was decay corrected. PRISM software was used to express a percentage (% ID/g) of the injected dose per gram of tissue. […] The data are represented as mean standard deviation of the % ID/g. […]
# The data are presented as a mean±standard deviation of the % ID/g. […] The P value indicates the result of an unpaired, two-tailed Student's t test.
# [1] = mice given dexamethasone 100 mg/kg oral gavage once daily for three days
# [2] = mice given vehicle by oral gavage once daily for three days
smiles,measurement,setting,value
"COc1cccc2c1-c1ccc3c(c1C(Cc1ccc([18F])cc1)O2)C(C)=CC(C)(C)N3 (racemic) [[18F]-YJH08, [^18F]-5-(4-fluorobenzyl)-10-methoxy-2,2,4-trimethyl-2,5-dihydro-1H-chromeno[3,4-f]quinoline]","radiotracer uptake, Adrenal Gland",[1],10.40 ± 0.7 % ID/g
same,"radiotracer uptake, Blood",[1],2.95 ± 0.2 % ID/g
same,"radiotracer uptake, Bone",[1],1.25 ± 0.2 % ID/g
same,"radiotracer uptake, Brain",[1],1.31 ± 0.07 % ID/g
same,"radiotracer uptake, Heart",[1],7.57 ± 0.9 % ID/g
same,"radiotracer uptake, Kidney",[1],3.75 ± 0.5 % ID/g
same,"radiotracer uptake, Large intestine",[1],1.77 ± 0.5 % ID/g
same,"radiotracer uptake, Liver",[1],11.43 ± 2.1 % ID/g
same,"radiotracer uptake, Lung",[1],3.92 ± 0.3 % ID/g
same,"radiotracer uptake, Muscle",[1],1.71 ± 0.1 % ID/g
same,"radiotracer uptake, Pancreas",[1],3.33 ± 0.1 % ID/g
same,"radiotracer uptake, Small intestine",[1],34.43 ± 7.2 % ID/g
same,"radiotracer uptake, Spleen",[1],4.23 ± 0.3 % ID/g
same,"radiotracer uptake, Stomach",[1],0.48 ± 0.4 % ID/g
same,"radiotracer uptake, Supraspinal BAT",[1],4.69 ± 0.7 % ID/g
same,"radiotracer uptake, Adrenal Gland",[2],17.29 ± 6.7 % ID/g
same,"radiotracer uptake, Blood",[2],3.98 ± 0.08 % ID/g
same,"radiotracer uptake, Bone",[2],2.17 ± 0.2 % ID/g
same,"radiotracer uptake, Brain",[2],2.05 ± 0.03 % ID/g
same,"radiotracer uptake, Heart",[2],10.66 ± 0.4 % ID/g
same,"radiotracer uptake, Kidney",[2],8.49 ± 1.3 % ID/g
same,"radiotracer uptake, Large intestine",[2],1.57 ± 0.4 % ID/g
same,"radiotracer uptake, Liver",[2],18.46 ± 2.9 % ID/g
same,"radiotracer uptake, Lung",[2],6.26 ± 0.4 % ID/g
same,"radiotracer uptake, Muscle",[2],2.46 ± 0.2 % ID/g
same,"radiotracer uptake, Pancreas",[2],6.22 ± 1.6 % ID/g
same,"radiotracer uptake, Small intestine",[2],19.12 ± 5.7 % ID/g
same,"radiotracer uptake, Spleen",[2],3.79 ± 0.4 % ID/g
same,"radiotracer uptake, Stomach",[2],1.74 ± 0.8 % ID/g
same,"radiotracer uptake, Supraspinal BAT",[2],10.52 ± 2.9 % ID/g

# Source: patent publication US20220280661A1, “GLUCOCORTICOID RECEPTOR RADIOLIGANDS AND METHODS FOR THEIR PREPARATION AND USE” (The Regents of the University of California, priority 2019, published 2022)
